Laboratory results published in patent publication US20260092070A1, “INHIBITORS OF CANINE JANUS KINASE AND USES THEREOF” (ANIMOL DISCOVERY, INC., priority 2023, published 2026).

How the values were obtained:
[1] = biological target: Human JAK-2 (Homo sapiens, UniProt O60674); assay: JAK enzymatic assay (Eurofins KinaseProfiler/IC50Profiler, radiometric), JAK-2; format: biochemical; settings: human JAK-2 enzyme, 9 concentrations; read-out: JAK2 affinity (IC50) category
Procedure: (§1) All enzyme assays were conducted according to Eurofins Discovery's KinaseProfiler™ and IC50Profiler™ services.
(SEQ ID NO: 2) peptide substrate, 10 mM magnesium acetate and [gamma-33P]-ATP (specific activity and concentration as required). The reaction was initiated by the addition of the Mg/ATP mix. After incubation for 40 minutes at room temperature, the reaction was stopped by the addition of phosphoric acid to a concentration of 0.5%. An aliquot of the reaction was then spotted onto a filter and washed four times for 4 minutes in 0.425% phosphoric acid and once with methanol prior to drying and scintillation counting.
(§2) Data was then imported into an internal application where each data point was expressed as % inhibition based on uninhibited and no enzyme controls.

[2] = biological target: T1, Human JAK-3 (Homo sapiens, UniProt P52333); assay: JAK enzymatic assay (Eurofins KinaseProfiler/IC50Profiler, radiometric), JAK-3; format: biochemical; settings: human JAK-3 enzyme, 9 concentrations; read-out: JAK3 affinity (IC50) category
T1 construct: purchased Eurofins Discovery (KinaseProfiler / IC50Profiler service)
T1 sequence (P52333 1-1124): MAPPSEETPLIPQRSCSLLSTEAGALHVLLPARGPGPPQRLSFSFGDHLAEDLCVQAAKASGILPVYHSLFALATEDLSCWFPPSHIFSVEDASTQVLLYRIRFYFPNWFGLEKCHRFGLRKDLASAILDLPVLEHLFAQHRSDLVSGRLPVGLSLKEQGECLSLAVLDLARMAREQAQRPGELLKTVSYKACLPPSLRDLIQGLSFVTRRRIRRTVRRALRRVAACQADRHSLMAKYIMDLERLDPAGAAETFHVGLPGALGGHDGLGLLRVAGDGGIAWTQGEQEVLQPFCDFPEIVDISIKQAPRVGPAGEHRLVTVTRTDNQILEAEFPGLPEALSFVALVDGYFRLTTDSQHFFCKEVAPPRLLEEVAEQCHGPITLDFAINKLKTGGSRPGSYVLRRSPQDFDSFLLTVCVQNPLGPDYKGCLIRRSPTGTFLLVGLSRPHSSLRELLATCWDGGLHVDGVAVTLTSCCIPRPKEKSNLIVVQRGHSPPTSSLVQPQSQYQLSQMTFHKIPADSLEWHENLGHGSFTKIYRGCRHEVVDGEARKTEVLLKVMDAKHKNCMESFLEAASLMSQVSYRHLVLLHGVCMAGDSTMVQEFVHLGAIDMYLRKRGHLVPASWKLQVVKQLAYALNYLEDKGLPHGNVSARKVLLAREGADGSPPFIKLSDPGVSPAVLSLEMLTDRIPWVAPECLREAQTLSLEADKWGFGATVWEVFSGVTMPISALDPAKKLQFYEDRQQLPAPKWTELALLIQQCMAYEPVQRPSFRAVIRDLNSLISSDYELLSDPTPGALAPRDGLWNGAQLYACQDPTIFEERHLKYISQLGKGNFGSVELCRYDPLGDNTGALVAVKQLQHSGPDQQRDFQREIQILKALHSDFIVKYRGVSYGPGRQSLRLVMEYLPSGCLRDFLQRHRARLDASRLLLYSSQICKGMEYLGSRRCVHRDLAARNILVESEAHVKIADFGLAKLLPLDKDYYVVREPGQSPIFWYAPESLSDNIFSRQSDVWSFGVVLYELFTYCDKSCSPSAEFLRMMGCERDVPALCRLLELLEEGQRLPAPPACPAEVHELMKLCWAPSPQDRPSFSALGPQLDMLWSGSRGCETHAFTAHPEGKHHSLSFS
Procedure: as §1
(SEQ ID NO: 3) peptide substrate, 10 mM magnesium acetate and [gamma-33P]-ATP (specific activity and concentration as required). The reaction was initiated by the addition of the Mg/ATP mix. After incubation for 40 minutes at room temperature, the reaction was stopped by the addition of phosphoric acid to a concentration of 0.5%. An aliquot of the reaction was then spotted onto a filter and washed four times for 4 minutes in 0.425% phosphoric acid and once with methanol prior to drying and scintillation counting.
as §2

[3] = biological target: T2, Human TYK-2 (Homo sapiens, UniProt P29597); assay: JAK enzymatic assay (Eurofins KinaseProfiler/IC50Profiler, radiometric), TYK-2; format: biochemical; settings: human TYK-2 enzyme, 9 concentrations; read-out: TYK2 affinity (IC50) category
T2 construct: purchased Eurofins Discovery (KinaseProfiler / IC50Profiler service)
T2 sequence (P29597 whole entry): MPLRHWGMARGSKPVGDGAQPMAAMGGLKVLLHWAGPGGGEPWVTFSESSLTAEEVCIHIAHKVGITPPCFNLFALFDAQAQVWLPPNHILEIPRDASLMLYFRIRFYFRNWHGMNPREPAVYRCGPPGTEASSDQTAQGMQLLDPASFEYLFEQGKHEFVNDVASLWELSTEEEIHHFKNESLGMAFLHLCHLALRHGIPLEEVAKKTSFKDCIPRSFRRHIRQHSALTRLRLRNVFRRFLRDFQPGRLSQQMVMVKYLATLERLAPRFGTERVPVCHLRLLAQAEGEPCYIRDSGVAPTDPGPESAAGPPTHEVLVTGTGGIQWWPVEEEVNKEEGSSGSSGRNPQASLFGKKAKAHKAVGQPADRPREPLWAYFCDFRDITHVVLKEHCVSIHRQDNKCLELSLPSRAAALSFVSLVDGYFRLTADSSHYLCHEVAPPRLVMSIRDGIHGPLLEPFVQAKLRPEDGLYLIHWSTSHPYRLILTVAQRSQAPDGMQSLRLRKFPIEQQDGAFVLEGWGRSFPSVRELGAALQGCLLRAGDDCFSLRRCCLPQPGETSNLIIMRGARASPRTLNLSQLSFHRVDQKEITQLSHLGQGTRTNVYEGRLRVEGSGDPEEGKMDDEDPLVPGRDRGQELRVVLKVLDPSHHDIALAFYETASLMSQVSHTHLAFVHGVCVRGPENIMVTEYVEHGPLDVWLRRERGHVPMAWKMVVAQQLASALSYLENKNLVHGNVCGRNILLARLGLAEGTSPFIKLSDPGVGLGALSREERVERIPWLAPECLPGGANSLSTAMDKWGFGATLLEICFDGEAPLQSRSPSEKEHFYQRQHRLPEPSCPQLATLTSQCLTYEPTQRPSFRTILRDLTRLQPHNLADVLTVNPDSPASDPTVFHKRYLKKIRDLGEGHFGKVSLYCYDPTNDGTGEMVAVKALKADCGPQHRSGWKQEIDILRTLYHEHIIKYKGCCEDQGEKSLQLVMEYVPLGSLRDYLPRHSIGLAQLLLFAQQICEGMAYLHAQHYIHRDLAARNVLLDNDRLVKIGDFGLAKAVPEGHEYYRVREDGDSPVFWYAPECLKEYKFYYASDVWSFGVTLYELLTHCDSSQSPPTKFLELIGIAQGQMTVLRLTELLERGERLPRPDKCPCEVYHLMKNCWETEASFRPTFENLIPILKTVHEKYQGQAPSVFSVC
Procedure: Human TYK-2 (Uniprot ID: P29597) was incubated with 8 mM MOPS pH 7.0, 0.2 mM EDTA, 250 μM […]

[4] = biological target: JAK-1 (Homo sapiens, UniProt P23458); assay: JAK enzymatic assay (Eurofins KinaseProfiler/IC50Profiler, radiometric), JAK-1; settings: for JAK1/JAK2 selectivity: selectivity IC50 ratio for JAK1 versus JAK2, human enzymes
JAK-1, sequence (P23458 whole entry): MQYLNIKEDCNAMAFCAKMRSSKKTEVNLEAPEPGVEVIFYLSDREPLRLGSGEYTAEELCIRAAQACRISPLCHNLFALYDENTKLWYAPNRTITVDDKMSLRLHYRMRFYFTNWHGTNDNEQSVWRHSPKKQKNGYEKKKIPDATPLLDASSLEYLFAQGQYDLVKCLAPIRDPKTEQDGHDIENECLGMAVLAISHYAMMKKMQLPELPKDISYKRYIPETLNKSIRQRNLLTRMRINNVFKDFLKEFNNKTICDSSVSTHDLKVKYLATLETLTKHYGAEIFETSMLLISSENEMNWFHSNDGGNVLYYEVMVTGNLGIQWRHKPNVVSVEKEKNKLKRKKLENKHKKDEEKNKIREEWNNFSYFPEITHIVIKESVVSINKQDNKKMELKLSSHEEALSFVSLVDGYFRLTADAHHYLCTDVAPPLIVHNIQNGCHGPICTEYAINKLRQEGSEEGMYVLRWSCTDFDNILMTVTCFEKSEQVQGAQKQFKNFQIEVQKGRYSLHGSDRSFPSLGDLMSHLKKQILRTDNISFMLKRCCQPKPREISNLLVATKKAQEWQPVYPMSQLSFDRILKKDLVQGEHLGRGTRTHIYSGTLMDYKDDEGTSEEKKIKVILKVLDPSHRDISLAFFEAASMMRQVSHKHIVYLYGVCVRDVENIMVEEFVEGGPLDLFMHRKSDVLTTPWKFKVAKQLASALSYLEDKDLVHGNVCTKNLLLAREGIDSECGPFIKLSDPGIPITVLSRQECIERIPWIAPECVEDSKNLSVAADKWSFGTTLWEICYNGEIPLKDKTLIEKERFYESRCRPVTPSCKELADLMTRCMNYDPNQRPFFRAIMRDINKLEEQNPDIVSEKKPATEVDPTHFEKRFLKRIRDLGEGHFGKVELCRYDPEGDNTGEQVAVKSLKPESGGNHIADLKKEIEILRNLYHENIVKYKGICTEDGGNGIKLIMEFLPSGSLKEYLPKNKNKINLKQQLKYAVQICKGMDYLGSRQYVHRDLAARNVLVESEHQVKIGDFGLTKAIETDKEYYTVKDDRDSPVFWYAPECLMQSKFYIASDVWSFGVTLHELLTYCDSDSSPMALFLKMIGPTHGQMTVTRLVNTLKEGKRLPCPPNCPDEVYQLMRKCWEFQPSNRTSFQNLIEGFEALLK
Procedure: as §1
(SEQ ID NO.: 1) peptide substrate, 10 mM magnesium acetate and [gamma-33P]-ATP (specific activity and concentration as required). The reaction was initiated by the addition of the Mg/ATP mix. After incubation for 40 minutes at room temperature, the reaction was stopped by the addition of phosphoric acid to a concentration of 0.5%. An aliquot of the reaction was then spotted onto a filter and washed four times for 4 minutes in 0.425% phosphoric acid and once with methanol prior to drying and scintillation counting. A known inhibitor, Staurosporine, was used as a positive control for the assay.
Data was then imported into an internal application where each data point was expressed as % inhibition based on uninhibited and no enzyme controls. […] Inhibition values for the JAK enzymes (IC50 values) for each compound were stratified into four groups.

Human JAK-2, sequence (O60674 whole entry): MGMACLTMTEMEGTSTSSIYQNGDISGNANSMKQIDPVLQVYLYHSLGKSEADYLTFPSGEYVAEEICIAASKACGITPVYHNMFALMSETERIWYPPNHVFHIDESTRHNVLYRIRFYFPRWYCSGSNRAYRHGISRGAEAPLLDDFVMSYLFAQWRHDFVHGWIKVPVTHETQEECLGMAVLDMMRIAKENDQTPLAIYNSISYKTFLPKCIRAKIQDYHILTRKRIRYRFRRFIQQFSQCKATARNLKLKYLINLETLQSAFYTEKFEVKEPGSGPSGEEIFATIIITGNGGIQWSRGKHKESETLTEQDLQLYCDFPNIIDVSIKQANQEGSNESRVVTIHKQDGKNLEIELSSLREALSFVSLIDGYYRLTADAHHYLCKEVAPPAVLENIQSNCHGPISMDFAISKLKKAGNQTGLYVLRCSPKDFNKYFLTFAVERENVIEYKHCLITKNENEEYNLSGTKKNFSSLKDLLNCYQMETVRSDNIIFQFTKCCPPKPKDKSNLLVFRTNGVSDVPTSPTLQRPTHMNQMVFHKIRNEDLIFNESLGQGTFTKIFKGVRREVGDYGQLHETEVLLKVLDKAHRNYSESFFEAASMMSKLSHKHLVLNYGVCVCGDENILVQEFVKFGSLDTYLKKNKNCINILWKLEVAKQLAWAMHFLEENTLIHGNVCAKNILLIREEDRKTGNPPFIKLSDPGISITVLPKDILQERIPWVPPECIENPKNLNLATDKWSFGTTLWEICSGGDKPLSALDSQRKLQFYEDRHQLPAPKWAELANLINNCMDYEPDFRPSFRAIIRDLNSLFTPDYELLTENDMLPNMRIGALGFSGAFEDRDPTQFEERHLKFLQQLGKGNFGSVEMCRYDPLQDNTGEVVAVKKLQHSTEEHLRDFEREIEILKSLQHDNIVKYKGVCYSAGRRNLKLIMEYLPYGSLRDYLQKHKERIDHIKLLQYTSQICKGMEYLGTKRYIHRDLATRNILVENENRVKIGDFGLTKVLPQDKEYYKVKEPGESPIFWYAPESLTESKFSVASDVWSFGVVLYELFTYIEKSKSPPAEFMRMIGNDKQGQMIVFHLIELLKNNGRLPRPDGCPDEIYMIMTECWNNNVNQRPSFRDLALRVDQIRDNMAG

Structure (SMILES)	IC50 [1] [nM]	IC50 [2] [nM]	IC50 [3] [nM]	IC50 [4] [nM]	JAK1/JAK2 selectivity [4]
COc1cc(NC(=O)CN2CCN(c3ncnc4[nH]ccc34)CC2)ccc1S(=O)(=O)N(C)C [Compound 1, 2-(4-(7H-pyrrolo[2,3-d]pyrimidin-4-yl)piperazin-1-yl)-N-(4-(N, N-dimethylsulfamoyl)-3-methoxyphenyl) acetamide]	> 1000	> 1000	> 1000	500 to 1000	–
CC(C)(C)NS(=O)(=O)c1ccc(NC(=O)CN2CCN(c3ncnc4[nH]ccc34)CC2)cc1 [Compound 2, 2-(4-(7H-pyrrolo[2,3-d]pyrimidin-4-yl)piperazin-1-yl)-N-(4-(N-(tert-butyl)sulfamoyl)phenyl)acetamide]	> 1000	> 1000	> 1000	< 250	25
O=C(CN1CCN(c2ncnc3[nH]ccc23)CC1)Nc1ccc(S(=O)(=O)N2CCC2)cc1 [Compound 4, 2-(4-(7H-pyrrolo[2,3-d]pyrimidin-4-yl)piperazin-1-yl)-N-(4-(azetidin-1-ylsulfonyl)phenyl) acetamide]	> 1000	> 1000	> 1000	250 to 500	24
CN(C)S(=O)(=O)c1ccc(NC(=O)CN2CCN(c3ncnc4[nH]ccc34)CC2)cc1F [Compound 5, 2-(4-(7H-pyrrolo[2,3-d]pyrimidin-4-yl)piperazin-1-yl)-N-(4-(N,N-dimethylsulfamoyl)-3-fluorophenyl)acetamide]	> 1000	> 1000	> 1000	250 to 500	–
CN(C)S(=O)(=O)c1ccc(NC(=O)CN2CCN(c3ncnc4[nH]ccc34)CC2)cc1Cl [Compound 6, 2-(4-(7H-pyrrolo[2,3-d]pyrimidin-4-yl)piperazin-1-yl)-N-(3-chloro-4-(N,N-dimethylsulfamoyl)phenyl)acetamide]	> 1000	> 1000	> 1000	–	–
O=C(CN1CCN(c2ncnc3[nH]ccc23)CC1)Nc1ccc(S(=O)(=O)NC2CC2)cc1 [Compound 7, 2-(4-(7H-pyrrolo[2,3-d]pyrimidin-4-yl)piperazin-1-yl)-N-(4-(N-cyclopropylsulfamoyl)phenyl)acetamide]	500 to 1000	> 1000	> 1000	< 250	13
CNS(=O)(=O)c1ccc(NC(=O)CN2CCN(c3ncnc4[nH]ccc34)CC2)cc1 [Compound 8, 2-(4-(7H-pyrrolo[2,3-d]pyrimidin-4-yl)piperazin-1-yl)-N-(4-(N-methylsulfamoyl)phenyl)acetamide]	500 to 1000	500 to 1000	> 1000	< 250	7
CNS(=O)(=O)c1ccc(NC(=O)CN2CCN(c3ncnc4[nH]ccc34)CC2)cc1F [Compound 9, 2-(4-(7H-pyrrolo[2,3-d]pyrimidin-4-yl)piperazin-1-yl)-N-(3-fluoro-4-(N-methylsulfamoyl)phenyl)acetamide]	500 to 1000	500 to 1000	500 to 1000	< 250	12
COCCN(C)S(=O)(=O)c1ccc(NC(=O)CN2CCN(c3ncnc4[nH]ccc34)CC2)cc1 [Compound 10, 2-(4-(7H-pyrrolo[2,3-d]pyrimidin-4-yl)piperazin-1-yl)-N-(4-(N-(2-methoxyethyl)-N-methylsulfamoyl)phenyl)acetamide]	> 1000	> 1000	> 1000	250 to 500	15
CCCCNS(=O)(=O)c1ccc(NC(=O)CN2CCN(c3ncnc4[nH]ccc34)CC2)cc1 [Compound 11, 2-(4-(7H-pyrrolo[2,3-d]pyrimidin-4-yl)piperazin-1-yl)-N-(4-(N-butylsulfamoyl)phenyl)acetamide]	> 1000	500 to 1000	> 1000	< 250	9
CCCNS(=O)(=O)c1ccc(NC(=O)CN2CCN(c3ncnc4[nH]ccc34)CC2)cc1 [Compound 12, 2-(4-(7H-pyrrolo[2,3-d]pyrimidin-4-yl)piperazin-1-yl)-N-(4-(N-propylsulfamoyl)phenyl)acetamide]	500 to 1000	500 to 1000	> 1000	< 250	4
CCNS(=O)(=O)c1ccc(NC(=O)CN2CCN(c3ncnc4[nH]ccc34)CC2)cc1 [Compound 13, 2-(4-(7H-pyrrolo[2,3-d]pyrimidin-4-yl)piperazin-1-yl)-N-(4-(N-ethylsulfamoyl)phenyl)acetamide]	> 1000	> 1000	> 1000	< 250	13
CNS(=O)(=O)c1ccc(N(C)C(=O)CN2CCN(c3ncnc4[nH]ccc34)CC2)cc1 [Compound 14, 2-(4-(7H-pyrrolo[2,3-d]pyrimidin-4-yl)piperazin-1-yl)-N-methyl-N-(4-(N-methylsulfamoyl)phenyl)acetamide]	> 1000	> 1000	> 1000	250 to 500	17
CC(C)NS(=O)(=O)c1ccc(NC(=O)[C@H](C)N2CCN(c3ncnc4[nH]ccc34)CC2)cc1 [Compound 19, (S)-2-(4-(7H-pyrrolo[2,3-d]pyrimidin-4-yl)piperazin-1-yl)-N-(4-(N-isopropylsulfamoyl)phenyl)propenamide]	> 1000	> 1000	–	< 250	8
O=C(CN1CCN(c2nc[nH]c3nccc2-3)CC1)Nc1ccc(/N=N/c2ccccc2)cc1 [Compound 33, N-[4-(2-phenyldiazen-1-yl)phenyl]-2-(4-{1H-pyrrolo[2,3-d]pyrimidin-4-yl}piperazin-1-yl)acetamide]	> 1000	–	–	< 250	>100
CN(C)S(=O)(=O)c1cc(NC(=O)CN2CCN(c3nc[nH]c4nccc3-4)CC2)ccc1Cl [Compound 34, N-[4-chloro-3-(dimethylsulfamoyl)phenyl]-2-(4-{1H-pyrrolo[2,3-d]pyrimidin-4-yl}piperazin-1-yl)acetamide]	> 1000	–	–	250 to 500	23
Cc1ccc(NC(=O)CN2CCN(c3nc[nH]c4nccc3-4)CC2)cc1S(=O)(=O)N(C)C [Compound 35, N-[3-(dimethylsulfamoyl)-4-methylphenyl]-2-(4-{1H-pyrrolo[2,3-d]pyrimidin-4-yl}piperazin-1-yl)acetamide]	> 1000	–	–	500 to 1000	11
CC(C(=O)Nc1cccc(S(=O)(=O)N(C)C)c1)N1CCN(c2nc[nH]c3nccc2-3)CC1 (centres unmarked) [Compound 36]	> 1000	–	–	> 1000	9
CC(C)N(C)S(=O)(=O)c1ccc(NC(=O)CN2CCN(c3nc[nH]c4nccc3-4)CC2)cc1 [Compound 37, N-{4-[methyl(propan-2-yl)sulfamoyl]phenyl}-2-(4-{1H-pyrrolo[2,3-d]pyrimidin-4-yl}piperazin-1-yl)acetamide]	> 1000	–	–	250 to 500	15
NS(=O)(=O)c1cccc(NC(=O)CCN2CCN(c3nc[nH]c4nccc3-4)CC2)c1 [Compound 38]	> 1000	–	–	500 to 1000	6
O=C(CCN1CCN(c2nc[nH]c3nccc2-3)CC1)Nc1cccc(S(=O)(=O)N2CCCC2)c1 [Compound 39]	> 1000	–	–	500 to 1000	1
CN(C)S(=O)(=O)c1ccc(NC(=O)CCN2CCN(c3nc[nH]c4nccc3-4)CC2)cc1 [Compound 40]	> 1000	–	–	250 to 500	11
CN(C)S(=O)(=O)c1ccccc1CNC(=O)CN1CCN(c2nc[nH]c3nccc2-3)CC1 [Compound 41, N-{[2-(dimethylsulfamoyl)phenyl]methyl}-2-(4-{1H-pyrrolo[2,3-d]pyrimidin-4-yl}piperazin-1-yl)acetamide]	> 1000	–	–	500 to 1000	10
